The assay deals with Male Sprague-Dawley rats. Briefly: radiant heat tail-flick test, baseline and NMDA-induced thermal hyperalgesia. The assay is classed as in vivo, rat. The text has this: To examine whether PSD-95/SAP90 was required for thermal hyperalgesia triggered through NMDA receptor activation, we made an antisense oligonucletide (OND) corresponding to the PDZ domain nucleotides 241 to 258 (5′-[…]-3′; SEQ ID NO: 1) of rat PSD-95/SAP90 mRNA, as well as the sense OND and missense OND (5′-[…]-3′; SEQ ID NO: 2). All of the ONDs were compared to the Gene Bank database (GenBank accession number M96853) and found not to be complementary to any registered nucleotide sequences. The effects of antisense, sense and missense ONDs on baseline and NMDA-induced tail-flick latencies were assessed. […] To identify that NMDA-induced thermal hyperalgesia was produced specifically through NMDA receptor activation but not non-NMDA receptor activation, we observed the effects of a selective NMDA receptor antagonist, MK-801, and a selective non-NMDA receptor antagonist, DNQX, on NMDA-induced facilitation of the tail-flick reflex. […] In addition, motor weakness or dysfunction was not observed in locomotor tests (including placing reflex, grasping reflex and righting reflex) in any of the treated animals including the antisense groups (data not shown).
Animal preparation and behavioral testing. All experiments were carried out with the approval of the Animal Care Committee at the Johns Hopkins University and were consistent with the ethical guidelines of the National Institutes of Health and the International Association for the Study of Pain. Male Sprague-Dawley rats (250-300 g) were implanted with an intrathecal PE-10 catheter into the subarachnoid space at the rostral level of the spinal cord lumbar enlargement through an incision at the atlanto-occipital membrane according to the method as described.^25,27 One week or more later, the rats were injected intrathecally with saline or ONDs every 24 h for 4 days. On the fifth day, saline, NMDA, MK-801+NMDA or DNQX+NMDA was given intrathecally. Nociception was evaluated by the radiant heat tail-flick test. The doses and time point of maximal effect of NMDA used in the present study were determined based on a previous study.^24 The tail-flick apparatus (Model 33B Tail Flick Analgesy Meter, IITC Life Science, Woodland Hills, Calif., USA) generated a beam of radiant heat that was focused on the underside of the tail, 5 cm from the tip. A cut-off time latency of 13.5 s was used to avoid tissue damage to the tail. Nociception was assessed by the time required to induce tail-flick after applying radiant heat to the skin of the tail. The latency of reflexive removal of the tail from the heat was measured automatically to the nearest 0.01 s. Tail-flick latency was measured five times, and the basal latency was defined as the mean. Tail-flick data were expressed as percentage change calculated by the formula: (trial latency−baseline latency)/(baseline latency)×100%. Finally, PE-10 catheter position from each animal was confirmed when lumbar enlargement segments were removed for western blot analysis. PCR analysis of PSD-95/SAP90 in rat spinal cord. The cDNA sequences encoding portions of the PSD-95/SAP90 were amplified using the following synthetic OND primers: PSD1 (5′-[…]-3′; SEQ ID NO: 3) and PSD2 (5′-[…]-3′; SEQ ID NO: 4) for amplification of PSD-95/SAP90 codon positions 789-1525. RNA samples (1 μg) from rat spinal cord, brain and muscle were reverse transcribed to generate first-strand cDNA. The PCR reactions were performed for 25 cycles. Each cycle included 30 s at 94° C., 30 s at 55° C., and 30 s at 71° C. The PCR products were directly cloned into the TA cloning vector (Invitrogen Co., San Diego, Calif., USA) and verified by automatic DNA sequencing. Fusion protein construction and preparation. cDNA sequence encoding portion of PSD-95/SAP90 was amplified by PCR and subcloned in-frame into PGEX-2T (GIBCO, Rockville, Md., USA) via the BamHI and EcoRI restriction digest sites. […]
(Thermal pain tests record how soon the animal reacts.)

In the case of `O=[N+]([O-])c1cc2nc(O)c(O)nc2cc1[N+](=O)[O-]` [DNQX], the “facilitation of the tail-flick reflex stimulated by NMDA” value (intrathecal DNQX 20 nM/10 μl) was “had no effect”. Further, for the setting “intrathecal DNQX 20 nM/10 μl + NMDA”, the “ΔTF latency (%)” value is on record as −22.6%.
On to `C[C@]12N[C@H](Cc3ccccc31)c1ccccc12` [MK-801], for which the “facilitation of the tail-flick reflex stimulated by NMDA” value (intrathecal MK-801 10 nM/10 μl) is listed as “completely abolished”. Besides, the “ΔTF latency (%)” value (intrathecal MK-801 10 nM/10 μl + NMDA) amounted to 0.9%.

The values are drawn from patent US8148347B2, “Inhibition of interaction of PSD93 and PSDS95 with nNOS and NMDA receptors” (The Johns Hopkins University, priority 2000, dated 2012).
